From patent US4866044A, “Solubilized composition of poorly-soluble pharmaceutical product” (Takeda Chemical Industries, Ltd., priority 1985, dated 1989)

How the values were obtained:
[1] = pH 6
physchem = settings: water

alanine
redissolubility [1]: O (key: O: dissolved within one minute; Δ: dissolved within one to three minutes)

CCCCCCCCCCCCCCCCCCNC(=O)OCC(COP(=O)([O-])OCC[n+]1ccsc1)OC (centres unmarked) [Compound [1], 3-(n-Octadecylcarbamoyloxy)-2-methoxypropyl 2-thiazolioethyl phosphate]
solubility (physchem): ~100 mg/mL
